Structures can show the parent of a compound that is named as a salt. Blank lines part the entries; values can stand above or below the compound they belong to.
Experiments:
storage stability = format: physicochemical
bioavailability = format: in vivo; conditions: free base is deliberated at physiological pH ranges
[1] = solubility in water / aqueous systems; format: physicochemical
[2] = thermal stability of polymorphic form; format: physicochemical

storage stability (storage stability): high storage stability
bioavailability (bioavailability): high bioavailability
solubility in aqueous systems ([1]; aqueous systems): very good
SMILES: CC(C)COc1ccc(CNC(=O)N(Cc2ccc(F)cc2)C2CCN(C)CC2)cc1 [Pimavanserin tartrate]

thermostability of the polymorphic form [2]: thermostabile
SMILES: CC(C)COc1ccc(CNC(=O)N(Cc2ccc(F)cc2)C2CCN(C)CC2)cc1 [Polymorphic Form C]

solubility in water ([1]; water): low
SMILES: CC(C)COc1ccc(CNC(=O)N(Cc2ccc(F)cc2)C2CCN(C)CC2)cc1 [pimavanserin, N-(4-fluorophenylmethyl)-N-(1-methylpiperidin-4-yl)-N′-(4-(2-methylpropyloxy)phenylmethyl)carbamide]

Reference: patent US11840515B2, “Methods for preparing N-(4-fluorobenzyl)-N-(1-methylpiperidin-4-yl)-N′-(4-(2-methylpropyloxy)phenylmethyl)carbamide and its tartrate salt and polymorphic form c” (ACADIA Pharmaceuticals Inc., priority 2015, dated 2023)
